The subject of data set [1] is Mus musculus. Briefly: Potentiation of L-dopa/carbidopa activity in reserpine-treated CD1 mouse assessed as increase in straightening at 100 mg/kg, ip administered 22 hrs post reserpine challenge followed by L-dopa/carbidopa adminstration at 30 mins measured after 1 hr relative to control. The data set is classed as functional, organism-based. More on the design: dose 100 mg/kg.

Data set [2] deals with Mus musculus. The data set can be described thus: Potentiation of L-dopa/carbidopa activity in reserpine-treated CD1 mouse assessed as increase in movement at 100 mg/kg, ip administered 22 hrs post reserpine challenge followed by L-dopa/carbidopa adminstration at 30 mins measured after 1 hr relative to control. The data set is classed as functional, organism-based. Also on record: dose 100 mg/kg.

In data set [3] the test system is Mus musculus. Briefly: Potentiation of L-dopa/carbidopa activity in reserpine-treated CD1 mouse assessed as increase in velocity at 100 mg/kg, ip administered 22 hrs post reserpine challenge followed by L-dopa/carbidopa adminstration at 30 mins measured after 1 hr relative to control. In kind it is functional, organism-based. Also on record: dose 100 mg/kg.
The test system of data set [4] is Mus musculus. Briefly: Potentiation of L-dopa/carbidopa activity in reserpine-treated CD1 mouse assessed as increase in motor activity at 100 mg/kg, ip administered 22 hrs post reserpine challenge followed by L-dopa/carbidopa adminstration at 30 mins measured after 1 hr relative to control. The data set is classed as functional, organism-based. Also on record: dose 100 mg/kg.

Data set [5] concerns Mus musculus. The data set can be described thus: Potentiation of L-dopa/carbidopa activity in reserpine-treated CD1 mouse assessed as increase in movement at 10 mg/kg, ip administered 22 hrs post reserpine challenge followed by L-dopa/carbidopa adminstration at 30 mins measured after 1 hr relative to control. The data set is classed as functional, organism-based. Also on record: dose 10 mg/kg.

Data set [6] deals with Mus musculus. The data set can be described thus: Potentiation of L-dopa/carbidopa activity in reserpine-treated CD1 mouse assessed as increase in motor activity at 10 mg/kg, ip administered 22 hrs post reserpine challenge followed by L-dopa/carbidopa adminstration at 30 mins measured after 1 hr relative to control. More on the design: dose 10 mg/kg. The data set is classed as functional, organism-based.

The test system of data set [7] is Mus musculus. The data set can be described thus: Neurotoxicity in CD1 mouse assessed as decrease in motor activity at 10 mg/kg, ip measured for 1 hr relative to control. In kind it is toxicity, organism-based. Also on record: dose 10 mg/kg, route intraperitoneal. The conditions noted are these: in vivo.
Data set [8] has as its system Mus musculus. The data set can be described thus: Neurotoxicity in CD1 mouse assessed as decrease in velocity at 10 mg/kg, ip measured for 1 hr relative to control. The conditions noted are these: in vivo. The data set is classed as toxicity, organism-based. Also on record: dose 10 mg/kg, route intraperitoneal.
The subject of data set [9] is Mus musculus. The data set can be described thus: Neurotoxicity in CD1 mouse assessed as decrease in movement at 10 mg/kg, ip measured for 1 hr relative to control. The data set is classed as toxicity, organism-based. Also on record: dose 10 mg/kg, route intraperitoneal. The conditions noted are these: in vivo.
Data set [10] deals with Mus musculus. The data set can be described thus: Neurotoxicity in CD1 mouse assessed as decrease in straightening at 10 mg/kg, ip measured for 1 hr relative to control. More on the design: dose 10 mg/kg, route intraperitoneal. In kind it is toxicity, organism-based. Conditions: in vivo.
In data set [11] the test system is Mus musculus. The data set can be described thus: Toxicity in reserpine-treated CD1 mouse assessed as mortality at 100 mg/kg, ip measured for 24 to 48 hrs. Also on record: dose 100 mg/kg, route intraperitoneal. Conditions: in vivo. The data set is classed as organism-based.
Data set [12] relates to Mus musculus. Briefly: Potentiation of L-dopa/carbidopa activity in reserpine-treated CD1 mouse assessed as increase in straightening at 10 mg/kg, ip administered 22 hrs post reserpine challenge followed by L-dopa/carbidopa adminstration at 30 mins measured after 1 hr relative to control. In kind it is functional, organism-based. More on the design: dose 10 mg/kg.
In data set [13] the test system is Mus musculus. Briefly: Potentiation of L-dopa/carbidopa activity in reserpine-treated CD1 mouse assessed as increase in velocity at 10 mg/kg, ip administered 22 hrs post reserpine challenge followed by L-dopa/carbidopa adminstration at 30 mins measured after 1 hr relative to control. More on the design: dose 10 mg/kg. In kind it is functional, organism-based.

Activity calls are given as the source filed them. The rule behind the calls is not given here.

In the case of `O=C(Nc1cc2ccccc2oc1=O)OCc1ccccc1`, the outcome in the data set with Mus musculus [1], in the data set with Mus musculus [2], in the data set on Mus musculus [3], in the data set with Mus musculus [4], with Mus musculus [5] and in the data set with Mus musculus [6] was Active. For the same compound, the Activity entry in the data set on Mus musculus [7], with Mus musculus [8], in the data set with Mus musculus [9], with Mus musculus [10] and with Mus musculus [11] was “Non-toxic” each time.

On to `C#CCN(C)[C@H](C)Cc1ccccc1` [SELEGILINE], for which the result in the data set with Mus musculus [12], in the data set on Mus musculus [5], in the data set on Mus musculus [13] and with Mus musculus [6] was Active. For the same compound, the Activity result in the data set on Mus musculus [7], with Mus musculus [8], with Mus musculus [9] and with Mus musculus [10] was “Toxic” throughout.
